In US10654834B2 (Venenum Biodesign, LLC, priority 2016, dated 2020):
Read-outs that look alike come from different tables or passages of the source.

Columns and labels:
Type in all cases: in vivo, mouse
[1] = Bile weight after chronic dosing (5 days) in DIO mice; conditions: 30 mg/kg + sitagliptin 10 mg/kg, after second and tenth treatment, versus sitagliptin alone
Protocol: Bile Weight after Chronic Dosing of Compounds
In this study, chronic dosing of compounds of the present invention was examined to determine if they lead to an increase in bile weight.
FIG. 13 depicts the time course of bile weight changes over time (i.e., 0, 3, 6, 9, and 12 hours) after the second and the tenth treatment with Compound 268 using the protocol in Example 87.

[2] = 6-week DEXA body composition analysis in DIO mice; conditions: 6 weeks BID dosing
Excerpt: In the next series of studies (Examples 93-99), Male DIO mice were received at 12 weeks of age (from Taconic), and were single-housed at the testing facility and acclimated for at least 2 weeks. The mice were provided a high fat diet [Research Diet D12492 (60% Fat kcal)] while in the testing facility. Before the study initiation, the animals were randomized into 5 experimental groups by body weight. The vehicle group contained only 0.5% carboxymethylcellulose (medium viscosity)+0.25% Tween-80. The second group contained 10 mg/kg of the DPP-IV inhibitor Sitagliptin while the third group contained 30 mg/kg Compound 268. The fourth group contained the combination of 10 mg/kg Sitagliptin and 30 mg/kg Compound 268. The fifth group was the positive control for weight loss, Rimonabant. All mice were dosed BID at approximately 6:00 am and again at approximately 4:00 pm. The positive control rimonabant was administered at a dose of 10 mg/kg in the afternoon and the morning dosing was vehicle (no compound).
6-Week Dexa Analysis after Multiple Weeks of Dosing Compounds
Compounds of the present invention were dosed for multiple weeks and the mice were analyzed to determine whether weight loss seen in Example 93 was due to a loss in fat or lean mass.
In this example, the protocol from Example 93 was utilized. The day of experiment, the mice were anesthetized using 2.5% avertin [tert-amyl alcohol (Aldrich #15,256-3) and 2,2,2-tribromoethanol (Aldrich # T4, 840-2)]. Their body composition was assessed using the PIXImus2 X-ray unit (GE Lunar Corporation, Madison, Wis.) connected to a computer equipped with LUNAR PIXImus2 software. The head region of each mouse was excluded from the analysis. The following measurements were automatically measured or calculated by the PIXImus2 software: bone mineral density (BMD), bone mineral content (BMC), bone area (B Area), tissue area (T Area), percent fat, and total tissue mass (TTM). Fat mass, the percentage of lean mass, and lean mass, were calculated manually as follows: % Lean=100−% Fat Lean Mass=TTM×(100−% Fat) Fat Mass=TTM×% Fat

[3] = Comparison of PK in DIO mice and lean mice; conditions: for Cmax / AUC(0-t) / Tmax: mouse, plasma; for AUC(0-t): read-out: AUC (0→4 h)
Protocol: Comparison of PK in DIO Mice and Lean Mice
The PK characteristics of Compound 268 were examined in non-fasted lean C57BL/6N and DIO mice (Taconic). Compound 268 was orally administered to both groups at 10 mg/kg by oral gavage and plasma concentration of the compound was determined as described in Example 81.
In addition, PK parameters were determined for Compound 268 (i.e., Cmax, Tmax, and AUC) following oral administration in four groups of mice: (i) fasted lean mice; (ii) non-fasted lean mice; (iii) non-fasted DIO mice; and (iv) lean mice receiving ABT.
The ABT treatment confirms that the low Cmax value of Compound 268 is attributed to […].

[4] = tested on: GLP-1; experiment: Plasma GLP-1 time course after a single oral dose in DIO mice; conditions: 30 mg/kg + sitagliptin versus sitagliptin alone, 6-24 h
Protocol: In this study, we evaluated if the observed GLP-1 elevation (induced by the compounds of the present invention) may be associated with gallbladder filling. We treated mice with Compound 268 and monitored the bile weight (a measure that indicated gallbladder filling) to determine if the compound retained more bile in the gallbladder as compared to the control mice (i.e., vehicle alone). A time course study was performed to measure weight of the bile aspirated from the gallbladder after oral administration of Compound 268 (30 mg/kg) in high fat diet induced obese (DIO) mice. In this study, GLP-1 levels were also measured at each time point (FIG. 9).
Approximately 12 week old DIO male mice (obtained from Taconic) were acclimated in the testing facility for over two weeks. The mice were provided a high fat diet [Research Diet D12492 (60% Fat kcal)] while in the testing facility. […] The blood samples were distributed as follows: 150-200 μL of blood were placed in an EDTA K^2+ tube containing 5 μL of 40 mg/mL aprotinin (Sigma A1153) and 1 μL of 10 mM sitagliptin (Sigma 58576) to be used for GLP-1 measurements; the remaining blood (≥250 μL) was placed in an EDTA K^2+ tube and plasma was processed for analytical chemistry and analyzed by LCMS/MS method as described in Example 81. […]

[5] = C57BL/6N, po, 10 mg/kg, Non-fasted DIO mice, oral (Table 58)
[6] = C57BL/6N, po, 10 mg/kg, Non-fasted Lean mice, oral (Table 58)
[7] = po, 10 mg/kg, Fasted Lean mice, oral (Table 58)
[8] = po, 10 mg/kg, lean mice receiving ABT (150 mg/kg), oral (Table 58)

bile weight after chronic dosing [1]: no significant changes in bile weight
Cmax ([3]; C57BL/6N, po, 10 mg/kg, DIO mice, Non-fasted PK, p.o. (Table 57)): 0.6 nM
Cmax ([3]; C57BL/6N, po, 10 mg/kg, Lean mice, Non-fasted PK, p.o. (Table 57)): 2.1 nM
Cmax [3, 5]: 0.57 nM
AUC(0-t) [3, 5]: 0.76 ng·h/mL
Cmax [3, 6]: 2.1 nM
AUC(0-t) [3, 6]: 2.9 ng·h/mL
Tmax ([3]; C57BL/6N, po, DIO mice, Non-fasted PK, 10 mg/kg, p.o. (Table 57)): 60 min
Tmax ([3]; 10 mg/kg, Fasted Lean mice, oral (Table 58)): 15 min
Cmax [3, 7]: 12 nM
AUC(0-t) [3, 7]: 18 ng·h/mL
Cmax [3, 8]: 4.2 nM
AUC(0-t) [3, 8]: 5.1 ng·h/mL
Tmax ([3]; lean mice receiving ABT (150 mg/kg), oral (Table 58)): 30 min
Cmax profile in fasted lean, non-fasted lean, non-fasted DIO mice ([3]; oral administration): low Cmax profile
Compound: N#Cc1ccc(CCNC(=O)[C@@H]2CCN2c2cc(N3CCC(CCNC(=O)NCCC(=O)O)CC3)nc(C(F)(F)F)n2)cc1 [Compound 268, (S)-3-(3-(2-(1-(6-(2-((4-cyanophenethyl)carbamoyl)azetidin-1-yl)-2-(trifluoromethyl)pyrimidin-4-yl)piperidin-4-yl)ethyl)ureido)propanoic acid]
fat mass versus lean mass (DEXA) [2]: due to a loss in the Fat Mass
loss in weight / total tissue mass (DEXA) [2]: about the same loss in weight
plasma GLP-1 levels [4]: significant elevation of GLP-1 levels
